In PMC7773843 (Frontiers in Pharmacology, 2020):

What was measured:
HL-7702 = test: cells; set-up: anti-proliferative / cytotoxicity assay on cell lines, IC50; conditions: Homo sapiens, L02, read-out: IC50 (µM) HL-7702
Description: (§1) As shown in SPR and ITC data, the binding affinity of OC to Cath B was weaker than that of OC to HSPA8, justifying our selection of HSPA8 for further studies. To evaluate whether OC potentially binds to HSPA8 in cell lysates, we synthesized OC_biotin ([Wang et al., 2016]; Supplementary Figure S8) and performed a pulldown assay using avidin beads. We first examined whether OC_biotin has the same binding affinity with that of OC to HSPA8 using SPR and ITC assays. […] We then examined the anticancer activities of OC_biotin and OC in several cancer cell lines. As shown in Supplementary Table S4, OC_biotin exerted similar anti-proliferative activity to that of OC in multiple cancer cell lines, with IC50 ranging from 5 to 20 µM. […] By using HeLa cells that stably expressed GFP-LC3, we measured the GFP-LC3 puncta increment upon OC, OC_biotin and Hydroxychloroquine (HCQ) treatment. […] Avidin beads were used to perform the OC_biotin immunoprecipitation assay with cell lysates. Consistent with the SPR and ITC assays, we pulled down HSPA8 using cell lysates.

PANC-1 = test: cells; set-up: anti-proliferative / cytotoxicity assay on cell lines, IC50; conditions: Homo sapiens, PANC-1, read-out: IC50 (µM)
Description: as §1

cathepsin B (Cath B) = target: T1, cathepsin B (Cath B) (Homo sapiens, UniProt P07858); test: ITC (KD […]); SPR KD […]; protease activity IC50 […]; type: binding
T1 construct: gene CTSB

[1] = target: T2, heat shock 70 kDa protein 8 (HSPA8) (Homo sapiens, UniProt P11142); test: ITC (KD […]); SPR KD […] ([…] also printed); thermal shift lowers Tm by ~[…]°C; type: binding
T2 construct: Full-length HSPA8, his-tagged, expressed in E. coli

A549 = test: cells; set-up: anti-proliferative / cytotoxicity assay on cell lines, IC50; conditions: Homo sapiens, A549, read-out: IC50 (µM)
Description: as §1

PC-3 = test: cells; set-up: anti-proliferative / cytotoxicity assay on cell lines, IC50; conditions: Homo sapiens, PC-3, read-out: IC50 (µM)
Description: as §1

HCT116-DKO = test: cells; set-up: anti-proliferative / cytotoxicity assay on cell lines, IC50; conditions: read-out: IC50 (µM)
Description: as §1

MDA-MB-231 = test: cells; set-up: anti-proliferative / cytotoxicity assay on cell lines, IC50; conditions: Homo sapiens, MDA-MB-231, read-out: IC50 (µM)
Description: as §1

Hela = test: cells; set-up: anti-proliferative / cytotoxicity assay on cell lines, IC50; conditions: Homo sapiens, HeLa, read-out: IC50 (µM)
Description: as §1

T2 sequence (P11142 whole entry): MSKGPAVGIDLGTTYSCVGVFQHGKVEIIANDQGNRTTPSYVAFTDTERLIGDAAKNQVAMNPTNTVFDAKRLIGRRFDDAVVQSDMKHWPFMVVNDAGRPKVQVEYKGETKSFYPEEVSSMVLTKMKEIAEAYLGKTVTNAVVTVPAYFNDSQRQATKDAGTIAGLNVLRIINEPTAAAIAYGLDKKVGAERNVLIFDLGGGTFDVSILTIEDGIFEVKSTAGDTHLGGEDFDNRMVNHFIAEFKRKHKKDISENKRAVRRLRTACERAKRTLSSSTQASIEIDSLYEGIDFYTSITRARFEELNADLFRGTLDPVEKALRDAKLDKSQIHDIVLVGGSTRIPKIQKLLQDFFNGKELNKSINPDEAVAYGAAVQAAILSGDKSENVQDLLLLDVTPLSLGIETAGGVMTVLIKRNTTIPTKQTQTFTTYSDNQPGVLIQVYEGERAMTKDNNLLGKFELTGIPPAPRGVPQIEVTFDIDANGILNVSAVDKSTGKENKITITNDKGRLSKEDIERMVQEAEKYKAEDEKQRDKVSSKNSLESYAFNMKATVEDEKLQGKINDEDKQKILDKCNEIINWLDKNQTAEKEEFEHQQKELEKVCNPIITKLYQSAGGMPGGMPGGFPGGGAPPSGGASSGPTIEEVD

| Structure (SMILES) | IC50 (HL-7702) [µM] | IC50 (PANC-1) [µM] | Kd (cathepsin B (Cath B)) [µM] | Kd [1] [µM] | IC50 (A549) [µM] | IC50 (PC-3) [µM] | IC50 (HCT116-DKO) [µM] | IC50 (MDA-MB-231) [µM] | IC50 (Hela) [µM] |
| --- | --- | --- | --- | --- | --- | --- | --- | --- | --- |
| COc1cc([C@@H]2c3cc4c(cc3[C@@H](O[C@@H]3O[C@@H]5CO[C@@H](C)O[C@H]5[C@H](O)[C@H]3O)[C@H]3COC(=O)[C@H]23)OCO4)cc(OC)c1O [Etoposide] | 1.42 ± 0.2 | 22.7 ± 1.7 |  |  |  |  |  |  |  |
| CC(C)=CCC/C(C)=C/C[C@@H]1C[C@]2(CC=C(C)C)C(=O)[C@@](CC=C(C)C)(C(=O)C(C(=O)c3ccc(O)c(O)c3)=C2O)[C@@]1(C)CCC=C(C)C [OC, Oblongifolin C] | 5.16 ± 0.4 | 17.5 ± 0.9 | 25.6 | 6.2 | 7.49 ± 0.9 | 10.7 ± 0.6 | 12.2 ± 0.9 | 15.9 ± 1.1 | 11 ± 1.2 |
